According to PubChem BioAssay AID1963833 (Molecular Pharmacology Branch, DTP, NCI, 2024):

System: 883617-216-R-J1-PDC complex spheroid viability
Assay: Anticancer human tumor 883617-216-R-J1-PDC patient-derived bladder carcinoma cell line growth inhibition [POLQ]
Conditions: for IC50: curve of first compound; for viability, T/C: stronger effect = lower value
In short: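 Three-cell-type spheroids modelling solid tumor plus stroma served as the readout system; POL inhibitors were tested individually and in combination, concentration ranges set by clinical Cmax where known.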

[1] = second compound 0.0316 µM, first compound 0.0316 µM
[2] = second compound 0.0316 µM, first compound 0.1 µM
[3] = second compound 0.0316 µM, first compound 0.316 µM
[4] = second compound 0.0316 µM, first compound 1 µM
[5] = second compound 0.0316 µM, first compound 3.16 µM
[6] = second compound 0.0316 µM, first compound 10 µM
[7] = second compound 0.1 µM, first compound 0.0316 µM
[8] = second compound 0.1 µM, first compound 0.1 µM
[9] = second compound 0.1 µM, first compound 0.316 µM
[10] = second compound 0.1 µM, first compound 1 µM
[11] = second compound 0.1 µM, first compound 3.16 µM
[12] = second compound 0.1 µM, first compound 10 µM
[13] = second compound 0.316 µM, first compound 0.0316 µM
[14] = second compound 0.316 µM, first compound 0.1 µM
[15] = second compound 0.316 µM, first compound 0.316 µM
[16] = second compound 0.316 µM, first compound 1 µM
[17] = second compound 0.316 µM, first compound 3.16 µM
[18] = second compound 0.316 µM, first compound 10 µM
[19] = second compound 1 µM, first compound 0.0316 µM
[20] = second compound 1 µM, first compound 0.1 µM
[21] = second compound 1 µM, first compound 0.316 µM
[22] = second compound 1 µM, first compound 1 µM
[23] = second compound 1 µM, first compound 3.16 µM
[24] = second compound 1 µM, first compound 10 µM
[25] = second compound 3.16 µM, first compound 0.0316 µM
[26] = second compound 3.16 µM, first compound 0.1 µM
[27] = second compound 3.16 µM, first compound 0.316 µM
[28] = second compound 3.16 µM, first compound 1 µM
[29] = second compound 3.16 µM, first compound 3.16 µM
[30] = second compound 3.16 µM, first compound 10 µM
[31] = second compound 10 µM, first compound 0.0316 µM
[32] = second compound 10 µM, first compound 0.1 µM
[33] = second compound 10 µM, first compound 0.316 µM
[34] = second compound 10 µM, first compound 1 µM
[35] = second compound 10 µM, first compound 3.16 µM
[36] = second compound 10 µM, first compound 10 µM
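Note: spheroids exposed to compounds for seven days before readout.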
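Throughout, for viability, T/C: 100% = DMSO vehicle control viability.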

`CNCc1ccc(-c2[nH]c3cc(F)cc4c3c2CCNC4=O)cc1` + Cc1cccc(N(C)C(=O)C2C(O)CCN2c2nc(C)cc(C(F)(F)F)c2C#N)c1 was tested, and the IC50 (second compound 0.0316 µM) was > 10 µM, the IC50 (second compound 0.1 µM) was > 10 µM and the IC50 (second compound 0.316 µM) was > 10 µM. The IC50 (second compound 1 µM) was > 10 µM, the IC50 (second compound 3.16 µM) was > 10 µM and the IC50 (second compound 10 µM) was > 10 µM. The viability, T/C [1] was 91.1%, the viability, T/C [2] was 97.6% and the viability, T/C [3] was 93%. The viability, T/C [4] was 90.3%, the viability, T/C [5] was 93.4% and the viability, T/C [6] was 82.7%. It also gave a viability, T/C [7] of 98.4%, a viability, T/C [8] of 95.7% and a viability, T/C [9] of 93.8%. For the same compound, the viability, T/C [10] was 104%, the viability, T/C [11] was 89% and the viability, T/C [12] was 81.6%. It also gave a viability, T/C [13] of 91.8%, a viability, T/C [14] of 92% and a viability, T/C [15] of 94.2%. The viability, T/C [16] was 90.6%, the viability, T/C [17] was 94.9% and the viability, T/C [18] was 75.2%. It also gave a viability, T/C [19] of 92.6%, a viability, T/C [20] of 83.6% and a viability, T/C [21] of 89.5%. It also gave a viability, T/C [22] of 97.5%, a viability, T/C [23] of 96.9% and a viability, T/C [24] of 80.9%. It also gave a viability, T/C [25] of 98.7%, a viability, T/C [26] of 95.3% and a viability, T/C [27] of 86.8%. For the same compound, the viability, T/C [28] was 84.2%, the viability, T/C [29] was 107% and the viability, T/C [30] was 88.6%. For the same compound, the viability, T/C [31] was 106%, the viability, T/C [32] was 98.6% and the viability, T/C [33] was 105%. For the same compound, the viability, T/C [34] was 102%, the viability, T/C [35] was 107% and the viability, T/C [36] was 93.3%.

In the case of `COc1cccc(OCCCN)c1-c1cc(Nc2cnc(C#N)cn2)n[nH]1` + Cc1cccc(N(C)C(=O)C2C(O)CCN2c2nc(C)cc(C(F)(F)F)c2C#N)c1, the IC50 (second compound 0.0316 µM) is reported as 0.0716 µM, the IC50 (second compound 0.1 µM) is reported as 0.0758 µM and the IC50 (second compound 0.316 µM) is reported as 0.0302 µM. It also gave an IC50 (second compound 1 µM) of 0.0773 µM, an IC50 (second compound 3.16 µM) of 0.0927 µM and an IC50 (second compound 10 µM) of 0.146 µM. The viability, T/C (second compound 0.0316 µM, first compound 0.00316 µM) was 84.8%, the viability, T/C (second compound 0.0316 µM, first compound 0.01 µM) was 70.7% and the viability, T/C [1] was 61.9%. The viability, T/C [2] was 46.8%, the viability, T/C [3] was 33.9% and the viability, T/C [4] was 35%. It also gave a viability, T/C (second compound 0.1 µM, first compound 0.00316 µM) of 95.5%, a viability, T/C (second compound 0.1 µM, first compound 0.01 µM) of 81.7% and a viability, T/C [7] of 68.5%. It also gave a viability, T/C [8] of 40.8%, a viability, T/C [9] of 39.7% and a viability, T/C [10] of 30.7%. It also gave a viability, T/C (second compound 0.316 µM, first compound 0.00316 µM) of 86.9%, a viability, T/C (second compound 0.316 µM, first compound 0.01 µM) of 81.8% and a viability, T/C [13] of 48.2%. For the same compound, the viability, T/C [14] was 45.7%, the viability, T/C [15] was 40.4% and the viability, T/C [16] was 35.4%. For the same compound, the viability, T/C (second compound 1 µM, first compound 0.00316 µM) was 91.4%, the viability, T/C (second compound 1 µM, first compound 0.01 µM) was 82.9% and the viability, T/C [19] was 51.2%. The viability, T/C [20] was 51.4%, the viability, T/C [21] was 39.5% and the viability, T/C [22] was 29.1%. The viability, T/C (second compound 3.16 µM, first compound 0.00316 µM) was 91.5%, the viability, T/C (second compound 3.16 µM, first compound 0.01 µM) was 77% and the viability, T/C [25] was 47.1%. The viability, T/C [26] was 60.2%, the viability, T/C [27] was 41.1% and the viability, T/C [28] was 31.8%. For the same compound, the viability, T/C (second compound 10 µM, first compound 0.00316 µM) was 88.3%, the viability, T/C (second compound 10 µM, first compound 0.01 µM) was 83.5% and the viability, T/C [31] was 65.8%. For the same compound, the viability, T/C [32] was 51.7%, the viability, T/C [33] was 46.6% and the viability, T/C [34] was 47.5%.

In the case of `O=C(c1cc(Cc2n[nH]c(=O)c3ccccc23)ccc1F)N1CCN(C(=O)C2CC2)CC1` + Cc1cccc(N(C)C(=O)C2C(O)CCN2c2nc(C)cc(C(F)(F)F)c2C#N)c1, the IC50 (second compound 0.0316 µM) is reported as > 10 µM, the IC50 (second compound 0.1 µM) is reported as > 10 µM and the IC50 (second compound 0.316 µM) is reported as > 10 µM. The IC50 (second compound 1 µM) was > 10 µM, the IC50 (second compound 3.16 µM) was > 10 µM and the IC50 (second compound 10 µM) was > 10 µM. It also gave a viability, T/C [1] of 111%, a viability, T/C [2] of 89.4% and a viability, T/C [3] of 82.2%. For the same compound, the viability, T/C [4] was 94.9%, the viability, T/C [5] was 79.3% and the viability, T/C [6] was 64.6%. It also gave a viability, T/C [7] of 111%, a viability, T/C [8] of 94% and a viability, T/C [9] of 91%. For the same compound, the viability, T/C [10] was 90.2%, the viability, T/C [11] was 80.3% and the viability, T/C [12] was 66.7%. The viability, T/C [13] was 112%, the viability, T/C [14] was 90.3% and the viability, T/C [15] was 89.8%. The viability, T/C [16] was 93.1%, the viability, T/C [17] was 82.6% and the viability, T/C [18] was 70.4%. For the same compound, the viability, T/C [19] was 98.7%, the viability, T/C [20] was 94.1% and the viability, T/C [21] was 90.9%. It also gave a viability, T/C [22] of 90.5%, a viability, T/C [23] of 92% and a viability, T/C [24] of 66.4%. The viability, T/C [25] was 93.3%, the viability, T/C [26] was 94.6% and the viability, T/C [27] was 90.5%. For the same compound, the viability, T/C [28] was 78.3%, the viability, T/C [29] was 87.3% and the viability, T/C [30] was 71.6%. The viability, T/C [31] was 114%, the viability, T/C [32] was 107% and the viability, T/C [33] was 120%. The viability, T/C [34] was 99.9%, the viability, T/C [35] was 95% and the viability, T/C [36] was 77.5%.
